# Results taken from paper PMC4957076, “Shared mechanism of teratogenicity of anti-angiogenic drugs identified in the chicken embryo model” (Scientific Reports, 2016).
# Tests used:
# [1] = tested on: developing limb bud of chicken embryos; assay: Drug-soaked filter paper square placed on the developing limb bud of chicken embryos; assay type: in vivo; conditions: filter paper square soaked in drug, HH St 18–20
# Text: Given the potency of these drugs and the resulting embryonic lethality we focused our attention on how the drugs affect limb development. The developing limb bud is a well studied morphological assay[22][41][42] ideal for understanding mechanisms of embryogenesis and how drugs influence this process. Moreover, other anti-angiogenic drugs like thalidomide and valproate cause limb defects. […] We therefore established a method where a small filter paper square soaked in the drug of interest could be placed directly onto the limb tissue of the embryo, thus avoiding or minimalizing exposure of the drug to other developing tissue/structures and retaining high viability. Filter paper squares were soaked for 10 minutes prior to removal of the embryonic membrane of HH St 18–20 (E2.5-E3) chicken embryos, then placed over the developing limb bud. Filter paper squares soaked in 0.1% DMSO had no effect on limb outgrowth.
# The tissue was then cleared in methyl salicylate.
# [2] = tested on: fli1:EGFP zebrafish embryos; assay: fli1:EGFP zebrafish embryo exposure: survival and intersegmental vessel development; assay type: in vivo
# Experimental: We then examined the extent and nature of the anti-angiogenic effects of the compounds using transgenic fli1:EGFP zebrafish embryos. The vasculature of these fish is tagged with EGFP and the transparency of the zebrafish allows for visualization of the forming blood vessels and any effect of anti-cancer drugs on their development over time (Fig. 4). A known anti-angiogenic and teratogenic compound (CPS49) was screened alongside the drugs as a positive control at 10 μg/mL (30 μM), a previously established anti-angiogenic concentration.
# fli1:EGFP zebrafish were obtained from the Zebrafish international Resource Centre[29] and maintained in an approved aquarium habitat at 28 °C. At 24 hours post fertilization (hpf) the embryos were checked for GFP expression using a fluorescent microscope and manually dechorionated with forceps, exposed to either a vehicle control, or an anti-angiogenic anti-cancer compound (at 24 hpf) for 24 hours and imaged at 48 hpf. At this point the embryos were anaesthetized in 0.1% tricaine and the length and number of intersegmental vessels (ISV) were quantified as previously described. A minimum of 10 embryos were screened per drug, per concentration, and experiments were performed in triplicate.
# [3] = human; cited from earlier work
# Mouse = conditions: cited from earlier work
# chicken embryos = tested on: chicken embryos
# Experimental: We then administered the compounds to developing chicken embryos to observe any teratogenic effects. […] At 48 hours post drug application both the survival rate and the incidence of defects were analyzed. A range of concentrations was tested to determine the effects and optimal concentration that was not 100% lethal.
# Fertilized white leghorn chicken embryos purchased from Henry Stewart Ltd. (Herefordshire, United Kingdom) were maintained in an incubator as described previously. At Hamburger and Hamilton stage 18–20 (E2.5-3)[54] the eggs were windowed and the embryos were prepared for drug exposure. To establish a dose response the drugs were applied once to the embryos and growth was monitored as described previously. In a second set of experiments, filter paper squares were cut 100 μm × 100 μm and soaked in the compound of interest for 10 minutes. While the filter paper squares absorbed the solution, embryonic membranes were removed and the sponge was then placed onto the limb bud. The eggs were sealed with tape and returned to an incubator. The embryos were checked daily for developmental defects and to ensure the filter paper squares remained in place. Control embryos were treated with 100 μL PBS with 0.1% DMSO. Embryos were removed from the eggs and fixed in 5% TCA at 4 degrees for 24 hours. Embryos were then washed in alcian blue for 8 hours, and placed in acid ethanol over night before being dehydrated in 100% ethanol for three one hour treatments. The tissue was then cleared in methyl salicylate. Cartilage was imaged and subsequently measured using a graticule scale and ImageJ. A minimum of 8 embryos was used per drug, per concentration. All animal work was licensed and carried out in accordance with and with approval of UK Home Office and Institutional ethical and welfare guidelines.
# HUVEC cells = assay: Endothelial cell proliferation assay (CCK-8); assay type: cell-based, Human; conditions: Homo sapiens, 18 hours exposure, CCK-8 assay, n = 9
# Experimental: Anti-angiogenic drugs were screened in a concentration gradient in the HUVEC culture assay. […] Cell proliferation was assessed using a CCK-8 assay (Dojindo). Statistical analysis by two-way Anova. Error represents the standard error of the mean.
# HUVEC cells were purchased from ATCC (Manassas, VA) and cultured as previously described. No further authentication was performed. Cells were seeded at 6.5 × 10^4 cells per well in 100 μL of medium per well. Drugs were diluted in prewarmed DMEM. Serial dilutions were performed from 1000–0.1 nM. The cells were left to grow for 18 hours with exposure to vehicle control (DMSO) or drugs. Experiments were done in triplicate each time. Cellular proliferation was assessed using a CCK-8 assay (Dojindo, Rockville, MD). All plates were read at 450 nm.
smiles,measurement,setting,value
CO[C@@H]1[C@H](OC(=O)NC(=O)CCl)CC[C@]2(CO2)[C@H]1[C@@]1(C)O[C@@H]1CC=C(C)C [TNP-470],effect on limb after direct application to limb bud,[1],Tissue was necrotic-looking
same,treated zebrafish killed,[2]; 200 μg/mL,90%
same,vessel outgrowth,[2]; 200 μg/mL,reducing vessel outgrowth
same,effect at low doses,[2]; <200 μg/mL,little effect
same,relative potency in reducing vessel outgrowth,"[2]; concentration gradient, within 24 hours of drug exposure",no effect until 200 μg/mL
same,Clinical Toxicities,[3],Neurotoxicity
same,Defects produced,Mouse; Mouse/Mice,Complete failure of embryonic growth
same,Systemic exposure (AUC) compared to human exposure,Mouse; Mouse/Mice,Below human
same,effect during pregnancy in mouse models,Mouse,"anti-angiogenic, disrupting newly developing blood vessels in the placenta and embryonic eye"
same,Defects produced in chicken embryos,chicken embryos; Table 1 summary,"Embryolethality, cranial hemorrhaging, micropthalmia, limb defects, spine"
same,defects observed in treated embryos,"chicken embryos; global treatment, surviving embryos",twisting of the spinal cord
same,IC50,HUVEC cells,< 10 nM
